Entries after “also recorded” stand apart in the source; their conditions may differ.
Experiments:
[1] = tested on: HORMAD1-positive and HORMAD1-negative triple negative breast cancer patient-derived organoids; experiment: Patient-derived TNBC organoids, viability by cell titre glo; type: cell-based, human; settings: 14 days
From the text: RPE1 cells were reverse transfected with BUB1 or control siRNA particles for 3 days. Cell lysates were collected, and analysed by western blotting using anti-BUB1 and anti-β-ACTIN antibodies. B. Graph indicating reduced cellular survival in HORMAD1 expressing RPE1 cells depleted of BUB1 using siRNA. RPE1 cells expressing a doxycycline-inducible HORMAD1 expression construct were exposed to doxycycline or vehicle, and were reverse transfected with BUB1 or control siRNA particles. 5 days post transfection, cellular viability was estimated using cell titer glo reagent and surviving fractions were calculated relative to DMSO treated cells. […] Statistical significance estimated using a one-way ANOVA with Sidak's correction. C. […] 7-10 days post doxycycline induction, cells were fixed, stained with SRB, and cellular viability was estimated using SRB absorbance readings. […] Cells were fixed, stained with SRB, and cellular viability was estimated using SRB absorbance readings. […] Cells were imaged every 4 hours, and confluence was continually measured using incucyte software. […] Cellular viability was estimated using cell titer glo reagent and surviving fractions were calculated relative to DMSO treated cells. […]
A further experiment was conducted to test the efficacy of BUB1 inhibitors to selectively kill HORMAD1-positive human tumours. […] Surviving fractions were calculated (normalised to vehicle treated cells). […]

[2] = tested on: RPE1 cells expressing a doxycycline-inducible HORMAD1 construct; experiment: Incucyte time-lapse confluence/proliferation in RPE1 cells with doxycycline-inducible HORMAD1; type: cell-based; settings: for cellular growth / fitness of HORMAD1 expressing RPE1 cells versus vehicle-induced cells under drug: incucyte confluence, 200 nM BOS172722 or 20 nM AZD1152-HQPA 10 days, 3 μM BAY-1816032 14 days
Method: Cell confluence was analysed every 6 hours for 10 days, using incucyte software. Data are from 3 biological replicates and analysed using a two-way ANOVA. […] RPE1 cells expressing a doxycycline-inducible HORMAD1 expression construct were exposed to doxycycline or vehicle (H2O) and were exposed to 20 nM of the Aurora B inhibitor, AZD1152-HQPA. Cell confluence was analysed every 6 hours for 10 days, using incucyte software. Data are from 3 biological replicates and analysed using a two-way ANOVA. […] 7-10 days post drugging, cells were fixed, stained with SRB, and colonies were counted using Cell Profiler. […] 10 days post drugging, cells were fixed, stained with SRB, and colonies were counted using Cell Profiler. […] RPE1 cells expressing a doxycycline-inducible HORMAD1 expression construct were exposed to doxycycline or vehicle (H2O) and to increasing doses of the Aurora B inhibitor, AZD1152-HQPA. 7-10 days post drugging, cells were fixed, stained with SRB, and colonies were counted using Cell Profiler. […] SUM159 cells expressing a doxycycline-inducible HORMAD1 expression construct were exposed to doxycycline or vehicle (H2O) and to increasing doses of the Aurora B inhibitor, AZD1152-HQPA. 10 days post drugging, cells were fixed, stained with SRB, and colonies were counted using Cell Profiler.
RPE1 cells were reverse transfected with BUB1 or control siRNA particles for 3 days. Cell lysates were collected, and analysed by western blotting using anti-BUB1 and anti-β-ACTIN antibodies. […] RPE1 cells expressing a doxycycline-inducible HORMAD1 expression construct were exposed to doxycycline or vehicle, and were reverse transfected with BUB1 or control siRNA particles. 5 days post transfection, cellular viability was estimated using cell titer glo reagent and surviving fractions were calculated relative to DMSO treated cells. […] Statistical significance estimated using a one-way ANOVA with Sidak's correction. C. […] Cell lysates were collected, and analysed by SDS-PAGE and western blotting using anti-HORMAD1, anti-H3 and anti-BUB1 antibodies. […] 7-10 days post doxycycline induction, cells were fixed, stained with SRB, and cellular viability was estimated using SRB absorbance readings. […] Cells were fixed, stained with SRB, and cellular viability was estimated using SRB absorbance readings. […] Cells were imaged every 4 hours, and confluence was continually measured using incucyte software. […] Patient-derived organoids models were grown in culture and cell lysates collected and analysed using SDS-PAGE and western blotting using anti-HORMAD1 and anti-β-ACTIN antibodies. […] Cellular viability was estimated using cell titer glo reagent and surviving fractions were calculated relative to DMSO treated cells. […]

## COc1cnccc1Nc1nc(-c2nn(Cc3c(F)cc(OCCO)cc3F)c3ccccc23)ncc1OC [BAY-1816032]
[1]; 3 HORMAD1-positive and 5 HORMAD1-negative models
  growth inhibition of HORMAD1-expressing versus HORMAD1-negative patient-derived organoids (BUB1 inhibitor): more effectively inhibited; also recorded: increased BUB1 inhibitor sensitivity
[2]; 3 μM, 240 hours, incucyte
  confluency reached, HORMAD1 expressing RPE1 cells: around 15%
  confluency reached, RPE1 cells without HORMAD1 expression: ~85%
[2]
  cellular growth / fitness of HORMAD1 expressing RPE1 cells versus vehicle-induced cells under drug: decreased cellular fitness

## CCN(CCO)CCCOc1ccc2c(Nc3cc(CC(=O)Nc4cccc(F)c4)[nH]n3)ncnc2c1 [AZD1152-HQPA]
[1]; BTBC673PO versus WHIM21XO, BXO88XO, BXO78XO
  growth inhibition of HORMAD1 expressing versus HORMAD1-negative patient-derived organoids (AURORA B inhibitor): growth inhibition was more effective
[2]
  cellular growth / fitness of HORMAD1 expressing RPE1 cells versus vehicle-induced cells under drug: marked decrease in cellular growth; also recorded: decreased cellular fitness

From patent US20240050434A1, “HORMAD1 THERAPEUTICS” (Royal Cancer Hospital, priority 2020, published 2024)
